Results from PubChem BioAssay AID330 (DTP/NCI, 2004).
Where “and” joins values, the source holds several entries; their conditions need not be identical. Equal entries are not always repeated. Inconclusive results and toxic doses are left out. Rule for the calls: active = survival T/C of 150% or more; inactive = T/C below 125% in these data.

Test system: P388 leukemia ip, CD2F1 mice, survival T/C
Experiment: NCI In Vivo Anticancer Drug Screen. Data for tumor model P388 Leukemia (intraperitoneal) in CD2F1 (CDF1) mice
Conditions: endpoint: median survival time, higher = longer survival
How it was run: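 Mice carrying the transplanted tumor received test compound or vehicle. Survival was recorded in each group, and the value is the treated-group measurement divided by that of the vehicle-treated control group.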

[1] = dose: 100.0 mg/kg/injection, schedule: Q01DX009 (ip), vehicle: saline with Tween-80
[2] = dose: 60.0 mg/kg/injection, schedule: Q01DX005 (ip), vehicle: Klucel (hydroxypropylcellulose) (HPC)
[3] = dose: 120.0 mg/kg/injection, schedule: Q01DX005 (ip), vehicle: Klucel (hydroxypropylcellulose) (HPC)
[4] = dose: 240.0 mg/kg/injection, schedule: Q01DX005 (ip), vehicle: Klucel (hydroxypropylcellulose) (HPC)

Measured: T/C

COC1/C=C/C=C(/C)Cc2cc(O)c(Cl)c(c2)N(C)C(=O)CC(OC(=O)C(C)C)C2(C)OC2C(C)C2CC1(O)NC(=O)O2 (stereo unspecified)
active: dose: 50.0 micrograms/kg/injection, schedule: Q01DX009 (ip), vehicle: saline + alcohol 153 % of control | dose: 100.0 micrograms/kg/injection, schedule: Q01DX009 (ip), vehicle: saline + alcohol 177 % of control and 190 % of control | dose: 200.0 micrograms/kg/injection, schedule: Q01DX009 (ip), vehicle: saline + alcohol 185 % of control and 221 % of control | dose: 400.0 micrograms/kg/injection, schedule: Q01DX009 (ip), vehicle: saline + alcohol 177 % of control and 230 % of control | dose: 800.0 micrograms/kg/injection, schedule: Q01DX009 (ip), vehicle: saline + alcohol 192 % of control and 205 % of control | dose: 1000.0 micrograms/kg/injection, schedule: Q01DX009 (ip), vehicle: saline + alcohol 182 % of control

CCN(CC)CCN1C(=O)CN=C(c2ccc[nH]2)c2cc(Cl)ccc21
inactive: [1] 90 % of control | dose: 100.0 mg/kg/injection, schedule: Q04DX003 (ip), vehicle: saline with Tween-80 100 % of control | dose: 200.0 mg/kg/injection, schedule: Q04DX003 (ip), vehicle: saline with Tween-80 100 % of control | dose: 400.0 mg/kg/injection, schedule: Q01DX009 (ip), vehicle: saline with Tween-80 95 % of control | dose: 400.0 mg/kg/injection, schedule: Q04DX003 (ip), vehicle: saline with Tween-80 95 % of control

CC(C)(C)[Si](C)(C)O[C@H]1C=C(S(=O)(=O)c2ccccc2)[C@H](O)C1
inactive: [2] 100 % of control | [3] 102 % of control | [4] 100 % of control

O=C1CN(c2ccccc2)C(=O)CN1/N=C/c1ccc[nH]1
inactive: dose: 6.25 mg/kg/injection, schedule: Q01DX005 (ip), vehicle: saline with Tween-80 95 % of control | dose: 12.5 mg/kg/injection, schedule: Q01DX005 (ip), vehicle: saline with Tween-80 100 % of control | dose: 25.0 mg/kg/injection, schedule: Q01DX005 (ip), vehicle: saline with Tween-80 97 % of control

CC(=O)OC1C(OC(=O)c2ccccc2)C=CC2OC21COC(=O)c1ccccc1 (stereo unspecified)
inactive: dose: 25.0 mg/kg/injection, schedule: Q01DX005 (ip), vehicle: saline + alcohol 97 % of control | dose: 50.0 mg/kg/injection, schedule: Q01DX005 (ip), vehicle: saline + alcohol 105 % of control | dose: 100.0 mg/kg/injection, schedule: Q01DX005 (ip), vehicle: saline + alcohol 98 % of control | dose: 200.0 mg/kg/injection, schedule: Q01DX005 (ip), vehicle: saline + alcohol 91 % of control

CN1C(c2ccccc2)=C(C#N)C(=O)CC(c2ccc(Cl)cc2)N1C (stereo unspecified)
inactive: dose: 60.0 mg/kg/injection, schedule: Q01DX005 (ip), vehicle: saline with Tween-80 102 % of control | dose: 120.0 mg/kg/injection, schedule: Q01DX005 (ip), vehicle: saline with Tween-80 91 % of control | dose: 240.0 mg/kg/injection, schedule: Q01DX005 (ip), vehicle: saline with Tween-80 101 % of control

COc1ccc(N2CCN(/C=C3\Cc4c(F)cccc4C3=O)CC2)cc1
inactive: dose: 100.0 mg/kg/injection, schedule: Q04DX003 (ip), vehicle: Klucel (hydroxypropylcellulose) (HPC) 97 % of control | dose: 200.0 mg/kg/injection, schedule: Q04DX003 (ip), vehicle: Klucel (hydroxypropylcellulose) (HPC) 103 % of control | dose: 400.0 mg/kg/injection, schedule: Q04DX003 (ip), vehicle: Klucel (hydroxypropylcellulose) (HPC) 101 % of control

O=C(O)Cc1c(-c2ccccc2)nc(=S)[nH]c1-c1[nH]c(=S)nc(-c2ccccc2)c1CC(=O)O
inactive: dose: 60.0 mg/kg/injection, schedule: Q01DX005 (ip), vehicle: saline 111 % of control | dose: 120.0 mg/kg/injection, schedule: Q01DX005 (ip), vehicle: saline 106 % of control | dose: 240.0 mg/kg/injection, schedule: Q01DX005 (ip), vehicle: saline 96 % of control

O=S(=O)(Oc1ccc2ccccc2c1)C(F)(F)C(F)(F)C(F)(F)C(F)(F)F
inactive: dose: 50.0 mg/kg/injection, schedule: Q01DX009 (ip), vehicle: saline with Tween-80 100 % of control | [1] 108 % of control | dose: 200.0 mg/kg/injection, schedule: Q01DX009 (ip), vehicle: saline with Tween-80 108 % of control

Cc1ncc(CSC(=N)N)n1Cc1ccccc1
inactive: dose: 8.5 mg/kg/injection, schedule: Q01DX009 (ip), vehicle: saline 115 % of control

O=C(Nc1cccc(C(F)(F)F)c1)c1cc2cc(Br)ccc2oc1=O
inactive: [2] 102 % of control | [3] 96 % of control | [4] 92 % of control

CN=C/C(C(C)=O)=C(\C)O
inactive: dose: 12.5 mg/kg/injection, schedule: Q01DX009 (ip), vehicle: saline 103 % of control | dose: 25.0 mg/kg/injection, schedule: Q01DX009 (ip), vehicle: saline 105 % of control | dose: 50.0 mg/kg/injection, schedule: Q01DX009 (ip), vehicle: saline 101 % of control and 106 % of control | dose: 100.0 mg/kg/injection, schedule: Q01DX009 (ip), vehicle: saline 112 % of control and 91 % of control
